The values that follow come from US8541418B2, “Inhibitors of polo-like kinase” (Elan Pharmaceutical, Inc., priority 2009, dated 2013).

What all share (assay type): biochemical
In one test the target is PLK3 (Homo sapiens, UniProt Q9H4B4). Kind of test: PLK TR-FRET peptide assay, PLK3.
Another test addresses PLK2 (Homo sapiens, UniProt Q9NYY3). In words: PLK TR-FRET peptide assay, PLK2. Conditions: for IC50: PLK TR-FRET peptide assay, read-out: Plk2 IC50. A general note: Time-resolved FRET reads energy transfer from a long-lived donor to a nearby acceptor.
The next test deals with PLK1 (Homo sapiens, UniProt P53350). Kind of test: PLK TR-FRET peptide assay, PLK1.
[1] abbreviates: GST-PLK3, 15 min reaction, read-out: Plk3 IC50.

SMILES strings stand for the structures. Like-named read-outs stand apart in the source and are kept apart here. Bounds are passed on as bounds.

Chain of PLK3 (Q9H4B4 whole entry): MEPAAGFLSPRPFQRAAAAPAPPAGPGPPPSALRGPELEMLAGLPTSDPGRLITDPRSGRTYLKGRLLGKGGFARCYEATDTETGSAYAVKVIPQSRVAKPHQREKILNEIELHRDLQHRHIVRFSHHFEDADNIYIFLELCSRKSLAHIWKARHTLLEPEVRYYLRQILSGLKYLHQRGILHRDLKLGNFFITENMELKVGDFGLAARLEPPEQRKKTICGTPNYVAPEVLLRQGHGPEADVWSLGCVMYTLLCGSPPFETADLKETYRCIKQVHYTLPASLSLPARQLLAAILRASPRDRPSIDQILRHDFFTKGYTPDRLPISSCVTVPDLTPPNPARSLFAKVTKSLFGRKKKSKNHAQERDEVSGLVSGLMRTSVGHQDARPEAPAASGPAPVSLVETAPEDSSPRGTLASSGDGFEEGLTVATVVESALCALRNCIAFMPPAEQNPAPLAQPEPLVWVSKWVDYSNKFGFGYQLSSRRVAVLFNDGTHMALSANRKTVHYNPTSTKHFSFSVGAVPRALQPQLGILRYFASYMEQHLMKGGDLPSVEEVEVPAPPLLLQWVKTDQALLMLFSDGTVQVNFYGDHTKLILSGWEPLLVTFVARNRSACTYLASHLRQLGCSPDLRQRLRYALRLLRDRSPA
Chain of PLK1 (P53350 whole entry): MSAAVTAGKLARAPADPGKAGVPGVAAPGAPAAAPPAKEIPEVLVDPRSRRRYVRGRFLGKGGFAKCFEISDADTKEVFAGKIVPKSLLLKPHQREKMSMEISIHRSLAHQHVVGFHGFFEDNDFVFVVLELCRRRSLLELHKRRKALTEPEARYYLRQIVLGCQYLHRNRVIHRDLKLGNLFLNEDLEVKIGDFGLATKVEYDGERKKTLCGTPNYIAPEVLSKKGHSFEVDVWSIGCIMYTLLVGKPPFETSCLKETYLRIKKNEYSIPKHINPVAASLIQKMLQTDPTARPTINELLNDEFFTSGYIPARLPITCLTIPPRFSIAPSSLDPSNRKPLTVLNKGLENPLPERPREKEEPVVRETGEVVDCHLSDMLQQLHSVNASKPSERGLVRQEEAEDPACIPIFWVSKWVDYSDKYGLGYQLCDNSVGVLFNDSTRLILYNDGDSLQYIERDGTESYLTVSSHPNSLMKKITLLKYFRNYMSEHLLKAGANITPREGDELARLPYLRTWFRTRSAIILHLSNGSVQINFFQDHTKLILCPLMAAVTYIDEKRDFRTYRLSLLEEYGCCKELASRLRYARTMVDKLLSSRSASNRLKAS
Chain of PLK2 (Q9NYY3 whole entry): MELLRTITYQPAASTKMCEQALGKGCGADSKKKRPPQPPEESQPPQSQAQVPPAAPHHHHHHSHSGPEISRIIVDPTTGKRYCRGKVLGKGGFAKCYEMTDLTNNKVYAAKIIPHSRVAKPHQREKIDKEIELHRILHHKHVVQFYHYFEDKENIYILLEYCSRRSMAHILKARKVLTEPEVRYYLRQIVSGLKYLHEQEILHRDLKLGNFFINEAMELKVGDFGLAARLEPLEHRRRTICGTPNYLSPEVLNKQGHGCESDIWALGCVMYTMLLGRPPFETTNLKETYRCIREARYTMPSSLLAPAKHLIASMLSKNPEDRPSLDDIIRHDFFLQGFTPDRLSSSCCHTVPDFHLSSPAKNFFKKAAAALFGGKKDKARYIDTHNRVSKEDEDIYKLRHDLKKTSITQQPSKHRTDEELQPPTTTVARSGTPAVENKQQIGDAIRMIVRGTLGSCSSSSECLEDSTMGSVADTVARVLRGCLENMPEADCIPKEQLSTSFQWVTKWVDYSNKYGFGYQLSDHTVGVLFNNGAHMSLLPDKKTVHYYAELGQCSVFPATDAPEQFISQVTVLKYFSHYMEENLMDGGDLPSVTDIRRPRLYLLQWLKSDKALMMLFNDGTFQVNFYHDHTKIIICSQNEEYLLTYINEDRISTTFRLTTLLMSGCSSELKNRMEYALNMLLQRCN

Turning to `CC[C@@H]1C(=O)N(C)c2cnc(-c3ccncc3N)nc2N1C1CCCC1` [Example 91, (R)-2-(3-aminopyridin-4-yl)-8-cyclopentyl-7-ethyl-5-methyl-7,8-dihydropteridin-6(5H)-one], the concentration for half-maximal inhibition (IC50) (in general, the concentration at which inhibition is half-maximal) on PLK3 (setting [1]) is 1 to 10 µM; on PLK2 (GST-PLK2, 60 min reaction), less than 1 µM; at PLK1 (GST-PLK1, 60 min reaction), less than 1 µM.
Regarding `CC[C@@]12CCCN1c1nc(-n3ccnc3-c3ccc(Cl)s3)ncc1N(C)C2=O` [Example 218, (S)-2-(2-(5-chlorothiophen-2-yl)-1H-imidazol-1-yl)-6a-ethyl-5-methyl-6a,7,8,9-tetrahydropyrrolo[2,1-h]pteridin-6(5H)-one], the IC50 is 10 to 50 µM at PLK3 (setting [1]); less than 1 µM on PLK2 (GST-PLK2, 60 min reaction); 10 to 50 µM at PLK1 (GST-PLK1, 60 min reaction).
With `CC[C@@H]1C(=O)N(C)c2cnc(-n3ccnc3-c3ccc(F)c(F)c3)nc2N1C1CC(F)C1` (stereo partly drawn) [Example 229, (R)-2-(2-(3,4-difluorophenyl)-1H-imidazol-1-yl)-7-ethyl-8-(3-fluorocyclobutyl)-5-methyl-7,8-dihydropteridin-6(5H)-one], the half-inhibitory concentration (IC50) on PLK3 (setting [1]) is 1 to 10 µM; on PLK2 (GST-PLK2, 60 min reaction), less than 1 µM; against PLK1 (GST-PLK1, 60 min reaction), 1 to 10 µM.
`CC[C@@H]1C(=O)N(C)c2cnc(-n3ccnc3-n3cccn3)nc2N1C1CCCC1` [Example 89, (R)-2-(2-(1H-pyrazol-1-yl)-1H-imidazol-1-yl)-8-cyclopentyl-7-ethyl-5-methyl-7,8-dihydropteridin-6(5H)-one]: the concentration for half-maximal inhibition (IC50) on PLK3 (setting [1]) is less than 1 µM; on PLK2 (GST-PLK2, 60 min reaction), less than 1 µM; on PLK1 (GST-PLK1, 60 min reaction), less than 1 µM.
`CC[C@@H]1C(=O)N(C)c2cnc(-n3nccc3-c3ccccc3)nc2N1C1CCC1` [Example 207, (R)-8-cyclobutyl-7-ethyl-5-methyl-2-(5-phenyl-1H-pyrazol-1-yl)-7,8-dihydropteridin-6(5H)-one]: the half-maximal inhibitory concentration (IC50) at PLK3 (setting [1]) was 1 to 10 µM; on PLK2 (GST-PLK2, 60 min reaction), less than 1 µM; against PLK1 (GST-PLK1, 60 min reaction), less than 1 µM.
In the case of `[2H]C([2H])([2H])N1C(=O)[C@H](C([2H])([2H])C([2H])([2H])[2H])N(C([2H])(C([2H])([2H])[2H])C([2H])([2H])[2H])c2nc(-n3ccnc3-c3ccc(F)cc3)ncc21` [Example 199, (S)-7-perdeuteroethyl-2-(2-(4-fluorophenyl)-1H-imidazol-1-yl)-8-perdeuteroisopropyl-5-trideuteromethyl-7,8-dihydropteridin-6(5H)-one], the 50% inhibitory concentration (IC50) at PLK3 (setting [1]) is greater than 50 µM; at PLK2 (GST-PLK2, 60 min reaction), 1 to 10 µM; against PLK1 (GST-PLK1, 60 min reaction) it was 10 to 50 µM.
In the case of `CC[C@@H]1C(=O)N(C)c2cnc(-c3cn[nH]c3-c3ccc(F)cc3F)nc2N1C(C)C` [Example 312, (R)-2-(5-(2,4-difluorophenyl)-1H-pyrazol-4-yl)-7-ethyl-8-isopropyl-5-methyl-7,8-dihydropteridin-6(5H)-one], the IC50 is less than 1 µM at PLK3 (setting [1]); less than 1 µM at PLK2 (GST-PLK2, 60 min reaction); less than 1 µM against PLK1 (GST-PLK1, 60 min reaction).
Regarding `CC[C@@H]1C(=O)N(C)c2cnc(-n3ccnc3-c3ccc(F)cc3F)nc2N1CCC(F)(F)F` [Example 277, (R)-2-(2-(2,4-difluorophenyl)-1H-imidazol-1-yl)-7-ethyl-5-methyl-8-(3,3,3-trifluoropropyl)-7,8-dihydropteridin-6(5H)-one], the concentration for half-maximal inhibition (IC50) on PLK3 (setting [1]) was 1 to 10 µM; at PLK2 (GST-PLK2, 60 min reaction), less than 1 µM; on PLK1 (GST-PLK1, 60 min reaction), 1 to 10 µM.
As for `CC[C@@H]1C(=O)N(C)c2cnc(-c3ccncc3NC(=O)CC(C)(C)C)nc2N1C(C)C` [Example 103, (R)—N-(4-(7-ethyl-8-isopropyl-5-methyl-6-oxo-5,6,7,8-tetrahydropteridin-2-yl)pyridin-3-yl)-3,3-dimethylbutanamide], the IC50 at PLK3 (setting [1]) fell in the range of 10 to 50 µM; at PLK2 (GST-PLK2, 60 min reaction), 10 to 50 µM; at PLK1 (GST-PLK1, 60 min reaction), 10 to 50 µM.
For the compound `CC[C@@H]1C(=O)N(C)c2cnc(-n3ccnc3C3CC3)nc2N1C1CCCC1` [Example 288, (R)-8-cyclopentyl-2-(2-cyclopropyl-1H-imidazol-1-yl)-7-ethyl-5-methyl-7,8-dihydropteridin-6(5H)-one], the half-maximal inhibitory concentration (IC50) at PLK3 (setting [1]) was 1 to 10 µM; on PLK2 (GST-PLK2, 60 min reaction), less than 1 µM; on PLK1 (GST-PLK1, 60 min reaction), 1 to 10 µM.
Consider `CC[C@@H]1C(=O)N(C)c2cnc(-c3ccncc3CNC(=O)c3ccccc3)nc2N1C(C)C` [Example 130, (R)—N-((4-(7-ethyl-8-isopropyl-5-methyl-6-oxo-5,6,7,8-tetrahydropteridin-2-yl)pyridin-3-yl)methyl)benzamide], for which the IC50 is greater than 50 µM on PLK3 (setting [1]); greater than 50 µM at PLK2 (GST-PLK2, 60 min reaction); greater than 50 µM on PLK1 (GST-PLK1, 60 min reaction).
Take `CC[C@@]12CCCCN1c1nc(-n3ccnc3-c3ccccc3)ncc1N(C)C2=O` [Example 262, (S)-6a-ethyl-5-methyl-2-(2-phenyl-1H-imidazol-1-yl)-7,8,9,10-tetrahydro-5H-pyrido[2,1-h]pteridin-6(6aH)-one]: the IC50 on PLK3 (setting [1]) was 1 to 10 µM; at PLK2 (GST-PLK2, 60 min reaction) it was less than 1 µM; on PLK1 (GST-PLK1, 60 min reaction), 1 to 10 µM. Moreover, the “relative PLK2 activity of the enantiomers” value on PLK2 (compared with the opposite enantiomer) was “more active compound”.
Regarding `CC[C@@H]1C(=O)N(C)c2cnc(-c3ccncc3CN)nc2N1C1CCCC1` [Example 105, (R)-2-(3-(aminomethyl)pyridin-4-yl)-8-cyclopentyl-7-ethyl-5-methyl-7,8-dihydropteridin-6(5H)-one], the IC50 is greater than 50 µM at PLK3 (setting [1]); 10 to 50 µM at PLK2 (GST-PLK2, 60 min reaction); 10 to 50 µM against PLK1 (GST-PLK1, 60 min reaction).
For the compound `CC[C@@H]1C(=O)N(C)c2cnc(-c3ccncc3CNS(=O)(=O)c3ccccc3)nc2N1C(C)C` [Example 136, (R)—N-((4-(7-ethyl-8-isopropyl-5-methyl-6-oxo-5,6,7,8-tetrahydropteridin-2-yl)pyridin-3-yl)methyl)benzenesulfonamide], the 50% inhibitory concentration (IC50) was greater than 50 µM on PLK3 (setting [1]); 1 to 10 µM at PLK2 (GST-PLK2, 60 min reaction); 10 to 50 µM against PLK1 (GST-PLK1, 60 min reaction).
In the case of `CC[C@@H]1C(=O)N(C)c2cnc(-c3ccccc3C(F)(F)F)nc2N1C1CCC1` [Example 98, (R)-8-cyclobutyl-7-ethyl-5-methyl-2-(2-(trifluoromethyl)phenyl)-7,8-dihydropteridin-6(5H)-one], the IC50 was greater than 50 µM on PLK3 (setting [1]); 1 to 10 µM at PLK2 (GST-PLK2, 60 min reaction); 10 to 50 µM against PLK1 (GST-PLK1, 60 min reaction).
In the same order, the values of `CC[C@@H]1C(=O)N(C)c2cnc(-c3ccncc3CNS(C)(=O)=O)nc2N1C1CCCC1` [Example 124, (R)—N-((4-(8-cyclopentyl-7-ethyl-5-methyl-6-oxo-5,6,7,8-tetrahydropteridin-2-yl)pyridin-3-yl)methyl)methanesulfonamide] are 10 to 50 µM, 1 to 10 µM and 1 to 10 µM.
Turning to `[2H]C([2H])([2H])N1C(=O)C(C([2H])([2H])C([2H])([2H])[2H])N(C([2H])(C([2H])([2H])[2H])C([2H])([2H])[2H])c2nc(-n3ccnc3-c3ccc(OC(F)(F)F)cc3)ncc21` (stereo not shown) [Example 170, 7-perdeuteroethyl-8-perdeuteroisopropyl-5-trideuteromethyl-2-(2-(4-(trifluoromethoxy)phenyl)-1H-imidazol-1-yl)-7,8-dihydropteridin-6(5H)-one], the IC50 at PLK3 (setting [1]) is greater than 50 µM; at PLK2 (GST-PLK2, 60 min reaction) it was less than 1 µM; at PLK1 (GST-PLK1, 60 min reaction), 10 to 50 µM.
Consider `CC[C@@H]1C(=O)N(C)c2cnc(-c3cn[nH]c3-c3cscn3)nc2N1C(C)C` [Example 320, (R)-7-ethyl-8-isopropyl-5-methyl-2-(5-(thiazol-4-yl)-1H-pyrazol-4-yl)-7,8-dihydropteridin-6(5H)-one], for which the half-inhibitory concentration (IC50) at PLK3 (setting [1]) was 1 to 10 µM; at PLK2 (GST-PLK2, 60 min reaction) it was less than 1 µM; against PLK1 (GST-PLK1, 60 min reaction) it was 1 to 10 µM.
For `CC[C@@H]1C(=O)N(C)c2cnc(-n3ccnc3-c3cccc(Br)c3)nc2N1C(C)C` [Example 220, (R)-2-(2-(3-bromophenyl)-1H-imidazol-1-yl)-7-ethyl-8-isopropyl-5-methyl-7,8-dihydropteridin-6(5H)-one], the concentration for half-maximal inhibition (IC50) on PLK3 (setting [1]) is 1 to 10 µM; at PLK2 (GST-PLK2, 60 min reaction) it was less than 1 µM; against PLK1 (GST-PLK1, 60 min reaction), less than 1 µM.
`CC[C@@]12CCCN1c1nc(-n3ncnc3C#Cc3ccccc3)ncc1N(C)C2=O` [Example 235, (S)-6a-ethyl-5-methyl-2-(5-(phenylethynyl)-1H-1,2,4-triazol-1-yl)-6a,7,8,9-tetrahydropyrrolo[2,1-h]pteridin-6(5H)-one]: the IC50 at PLK3 (setting [1]) is 10 to 50 µM; on PLK2 (GST-PLK2, 60 min reaction), 10 to 50 µM; against PLK1 (GST-PLK1, 60 min reaction), greater than 50 µM.
Take `CC[C@@H]1C(=O)N(C)c2cnc(-n3cnc(-c4ccccc4)c3)nc2N1C1CCCC1` [Example 36, (R)-8-cyclopentyl-7-ethyl-5-methyl-2-(4-phenyl-1H-imidazol-1-yl)-7,8-dihydropteridin-6(5H)-one]: the IC50 at PLK3 (setting [1]) is 10 to 50 µM; on PLK2 (GST-PLK2, 60 min reaction), less than 1 µM; against PLK1 (GST-PLK1, 60 min reaction), less than 1 µM.
As to `CC[C@H]1C(=O)N(C)c2cnc(-c3cn[nH]c3-c3nccs3)nc2N1c1ccc(F)c(F)c1` [Example 393, (S)-8-(3,4-difluorophenyl)-7-ethyl-5-methyl-2-(5-(thiazol-2-yl)-1H-pyrazol-4-yl)-7,8-dihydropteridin-6(5H)-one], the concentration for half-maximal inhibition (IC50) was greater than 50 µM at PLK3 (GST-PLK3, read-out: Plk3 IC50); 1 to 10 µM at PLK2 (GST-PLK2); 10 to 50 µM against PLK1 (GST-PLK1).
As for `CC[C@@H]1C(=O)N(C)c2cnc(-n3ccnc3-c3ccccc3)nc2N1C1CCC1` [Example 47, (R)-8-cyclobutyl-7-ethyl-5-methyl-2-(2-phenyl-1H-imidazol-1-yl)-7,8-dihydropteridin-6(5H)-one], the 50% inhibitory concentration (IC50) at PLK3 (setting [1]) is 1 to 10 µM; on PLK2 (GST-PLK2, 60 min reaction), less than 1 µM; against PLK1 (GST-PLK1, 60 min reaction) it was less than 1 µM.
As for `CC[C@@H]1C(=O)N(C)c2cnc(-n3ccnc3-c3cncnc3)nc2N1C1CC1` [Example 143, (R)-8-cyclopropyl-7-ethyl-5-methyl-2-(2-(pyrimidin-5-yl)-1H-imidazol-1-yl)-7,8-dihydropteridin-6(5H)-one], the IC50 on PLK3 (setting [1]) is 10 to 50 µM; on PLK2 (GST-PLK2, 60 min reaction), 1 to 10 µM; against PLK1 (GST-PLK1, 60 min reaction), 10 to 50 µM.
